PubChem BioAssay AID1919004 (Molecular Pharmacology Branch, DTP, NCI, 2023)
pIC50: −log10 of the molar value. Where “and” joins values, the source holds several entries; their conditions need not be identical. Equal values may be shown once.

Tested on: 883617-216-R-J1-PDC complex spheroids, growth, % test/control
Experiment: Anticancer human tumor 883617-216-R-J1-PDC patient-derived bladder carcinoma cell line growth inhibition [AhR]
Conditions: for viability, T/C: stronger effect = lower value
Method in brief: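 Spheroids combined tumor cells with HUVEC endothelial cells and human MSCs as stroma. AhR antagonists were paired with standard or investigational drugs, each dosed in half-log steps down from near clinical Cmax, or from 10 microM where Cmax was unknown.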

[1] = curve of first compound, second compound 0.1 µM
[2] = curve of first compound, second compound 0.316 µM
[3] = curve of first compound, second compound 1 µM
[4] = curve of first compound, second compound 3.16 µM
[5] = curve of first compound, second compound 10 µM
[6] = second compound 0.1 µM, first compound 0.00949 µM
[7] = second compound 0.1 µM, first compound 0.03 µM
[8] = second compound 0.1 µM, first compound 0.0949 µM
[9] = second compound 0.1 µM, first compound 0.3 µM
[10] = second compound 0.316 µM, first compound 0.00949 µM
[11] = second compound 0.316 µM, first compound 0.03 µM
[12] = second compound 0.316 µM, first compound 0.0949 µM
[13] = second compound 0.316 µM, first compound 0.3 µM
[14] = second compound 1 µM, first compound 0.00949 µM
[15] = second compound 1 µM, first compound 0.03 µM
[16] = second compound 1 µM, first compound 0.0949 µM
[17] = second compound 1 µM, first compound 0.3 µM
[18] = second compound 3.16 µM, first compound 0.00949 µM
[19] = second compound 3.16 µM, first compound 0.03 µM
[20] = second compound 3.16 µM, first compound 0.0949 µM
[21] = second compound 3.16 µM, first compound 0.3 µM
[22] = second compound 10 µM, first compound 0.00949 µM
[23] = second compound 10 µM, first compound 0.03 µM
[24] = second compound 10 µM, first compound 0.0949 µM
[25] = second compound 10 µM, first compound 0.3 µM
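Also: exposure lasted 7 days after dosing on day 3 of spheroid growth.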

In the case of O=C(C=Cn1cnc(-c2cc(C(F)(F)F)cc(C(F)(F)F)c2)n1)NNc1cnccn1 + CC(CO)NC(=O)c1cc(-c2ccc(Cl)cc2)nn(-c2cnn(C)c2)c1=O, the pIC50 [1] was 6.81, the pIC50 [2] was 6.45 and the pIC50 [3] was 6.73. The pIC50 [4] was 6.74, the pIC50 [5] was 6.78 and the viability, T/C [6] was 93.7%. The viability, T/C [7] was 78.1%, the viability, T/C [8] was 56.8% and the viability, T/C [9] was 40.4%. For the same compound, the viability, T/C (second compound 0.1 µM, first compound 0.949 µM) was 34.5%, the viability, T/C (second compound 0.1 µM, first compound 3 µM) was 29.7% and the viability, T/C [10] was 109%. For the same compound, the viability, T/C [11] was 79.4%, the viability, T/C [12] was 71% and the viability, T/C [13] was 50.1%. The viability, T/C (second compound 0.316 µM, first compound 0.949 µM) was 37.8%, the viability, T/C (second compound 0.316 µM, first compound 3 µM) was 37.2% and the viability, T/C [14] was 60.4%. It also gave a viability, T/C [15] of 76.3%, a viability, T/C [16] of 65% and a viability, T/C [17] of 37.2%. The viability, T/C (second compound 1 µM, first compound 0.949 µM) was 46.8%, the viability, T/C (second compound 1 µM, first compound 3 µM) was 34.5% and the viability, T/C [18] was 65.1%. It also gave a viability, T/C [19] of 61.9%, a viability, T/C [20] of 71.2% and a viability, T/C [21] of 32.4%. For the same compound, the viability, T/C (second compound 3.16 µM, first compound 0.949 µM) was 50.3%, the viability, T/C (second compound 3.16 µM, first compound 3 µM) was 29.1% and the viability, T/C [22] was 72.3%. It also gave a viability, T/C [23] of 46.9%, a viability, T/C [24] of 75.3% and a viability, T/C [25] of 34.1%. The viability, T/C (second compound 10 µM, first compound 0.949 µM) was 37.5% and the viability, T/C (second compound 10 µM, first compound 3 µM) was 24.9%.
With CCc1c2c(nc3ccc(O)cc13)-c1cc3c(c(=O)n1C2)COC(=O)[C@]3(O)CC + Cc1cncc(-c2nc(NCCc3c[nH]c4ccccc34)c3ncn(C(C)C)c3n2)c1 the pIC50 [1] was 6.57, the pIC50 [2] was < 6.52 and the pIC50 [3] was < 6.52. For the same compound, the pIC50 [4] was 6.58, the pIC50 [5] was > 9.02 and the viability, T/C (second compound 0.1 µM, first compound 0.000949 µM) was 85.1%. The viability, T/C (second compound 0.1 µM, first compound 0.003 µM) was 79.9%, the viability, T/C [6] was 79% and the viability, T/C [7] was 71.2%. For the same compound, the viability, T/C [8] was 61.1%, the viability, T/C [9] was 49% and the viability, T/C (second compound 0.316 µM, first compound 0.000949 µM) was 83.9%. It also gave a viability, T/C (second compound 0.316 µM, first compound 0.003 µM) of 94.5%, a viability, T/C [10] of 77.5% and a viability, T/C [11] of 65.8%. For the same compound, the viability, T/C [12] was 56.4%, the viability, T/C [13] was 54.3% and the viability, T/C (second compound 1 µM, first compound 0.000949 µM) was 87.6%. The viability, T/C (second compound 1 µM, first compound 0.003 µM) was 89.3%, the viability, T/C [14] was 84.7% and the viability, T/C [15] was 72.5%. It also gave a viability, T/C [16] of 64.3%, a viability, T/C [17] of 53.9% and a viability, T/C (second compound 3.16 µM, first compound 0.000949 µM) of 91.9%. For the same compound, the viability, T/C (second compound 3.16 µM, first compound 0.003 µM) was 99.5%, the viability, T/C [18] was 86.1% and the viability, T/C [19] was 88.9%. It also gave a viability, T/C [20] of 55.8%, a viability, T/C [21] of 49.4% and a viability, T/C (second compound 10 µM, first compound 0.000949 µM) of 44.6%. It also gave a viability, T/C (second compound 10 µM, first compound 0.003 µM) of 48.3%, a viability, T/C [22] of 27.3% and a viability, T/C [23] of 31.3%. It also gave a viability, T/C [24] of 25.5% and a viability, T/C [25] of 27.1%.
Nc1ccccc1NC(=O)c1ccc(CNC(=O)OCc2cccnc2)cc1 + CC(CO)NC(=O)c1cc(-c2ccc(Cl)cc2)nn(-c2cnn(C)c2)c1=O gave a pIC50 [1] of 5.53, a pIC50 [2] of 5.33 and a pIC50 [3] of 5.48. It also gave a pIC50 [4] of 5.36, a pIC50 [5] of 5.41 and a viability, T/C (second compound 0.1 µM, first compound 0.0316 µM) of 79.3%. For the same compound, the viability, T/C (second compound 0.1 µM, first compound 0.1 µM) was 101%, the viability, T/C (second compound 0.1 µM, first compound 0.316 µM) was 90.8% and the viability, T/C (second compound 0.1 µM, first compound 1 µM) was 78.8%. The viability, T/C (second compound 0.1 µM, first compound 3.16 µM) was 48.2%, the viability, T/C (second compound 0.1 µM, first compound 10 µM) was 20.5% and the viability, T/C (second compound 0.316 µM, first compound 0.0316 µM) was 76.8%. It also gave a viability, T/C (second compound 0.316 µM, first compound 0.1 µM) of 86.9%, a viability, T/C (second compound 0.316 µM, first compound 0.316 µM) of 113% and a viability, T/C (second compound 0.316 µM, first compound 1 µM) of 83%. It also gave a viability, T/C (second compound 0.316 µM, first compound 3.16 µM) of 68.3%, a viability, T/C (second compound 0.316 µM, first compound 10 µM) of 16.8% and a viability, T/C (second compound 1 µM, first compound 0.0316 µM) of 92.8%. The viability, T/C (second compound 1 µM, first compound 0.1 µM) was 87.2%, the viability, T/C (second compound 1 µM, first compound 0.316 µM) was 110% and the viability, T/C (second compound 1 µM, first compound 1 µM) was 97.5%. It also gave a viability, T/C (second compound 1 µM, first compound 3.16 µM) of 51.4%, a viability, T/C (second compound 1 µM, first compound 10 µM) of 18.7% and a viability, T/C (second compound 3.16 µM, first compound 0.0316 µM) of 73.6%. The viability, T/C (second compound 3.16 µM, first compound 0.1 µM) was 66.8%, the viability, T/C (second compound 3.16 µM, first compound 0.316 µM) was 88% and the viability, T/C (second compound 3.16 µM, first compound 1 µM) was 105%. For the same compound, the viability, T/C (second compound 3.16 µM, first compound 3.16 µM) was 61.2%, the viability, T/C (second compound 3.16 µM, first compound 10 µM) was 21.8% and the viability, T/C (second compound 10 µM, first compound 0.0316 µM) was 110%. The viability, T/C (second compound 10 µM, first compound 0.1 µM) was 114%, the viability, T/C (second compound 10 µM, first compound 0.316 µM) was 104% and the viability, T/C (second compound 10 µM, first compound 1 µM) was 84.1%. The viability, T/C (second compound 10 µM, first compound 3.16 µM) was 61.1% and the viability, T/C (second compound 10 µM, first compound 10 µM) was 8.65%.
In the case of Nc1ncn(C2CC(O)C(CO)O2)c(=O)n1 (configuration not stated), the viability, T/C (compound 0.00316 µM) was 88.2% and 94.6% and 84.1%, the viability, T/C (compound 0.01 µM) was 93.2% and 102% and 118% and the viability, T/C (compound 0.0316 µM) was 94.7% and 90.6% and 73.1%. The viability, T/C (compound 0.1 µM) was 89.7% and 97% and 93.9%, the viability, T/C (compound 0.316 µM) was 85.9% and 82.2% and 113% and the viability, T/C (compound 1 µM) was 76.2% and 75.2% and 94.4%. The pIC50 (curve of compound) was < 6.00.
